“Also recorded” adds a separate entry of the source.

One test concerns MRC-5 cell. The test is described as follows: RT-qPCR detection of nucleic acid delivered by lipid into MRC-5 cells. It is filed as cell-based. The following applies: RNA 100 nM. How it is done:
3.1 NCI-N87 cell (gastric cancer cell), MRC-5 cell (lung fibroblast), A549 cell (lung cancer cell) were cultured to logarithmic growth phase, and then plated to a six-well plate at cell density of 1×10^6/2 mL medium/well; MRC-5 cell was cultured in Eagle's MEM medium (MEM, Gibco); A549 cell was cultured in Ham's F-12 medium (HyClone); NCI-N87 cell was cultured in RPMI-1640 medium (HyClone); followed by incubation overnight at 37° C., and the follow-up experiments were performed after the cells were attached to the walls.
3.3 After co-incubation with the small RNA for 3 hours, the cells were washed 2-3 times with PBS. The cells were harvested with TRIzol lysis buffer, and the total RNA was extracted. The abundance of small RNA that entered cells was detected by RT-qPCR, and the localization of RNA was detected by fluorescence in situ hybridization; protocols of each detection method were as follows:
3.3.2 RT-qPCR Detection of Small RNA (SYBR Green Dye Method)
The stem-loop primer used in the reverse transcription process was synthesized by Beijing Tsingke Biotechnology Co., Ltd. (U6 RT primer: […] ATG (SEQ ID NO: 21); HJT-sRNA-m7 RT stem-loop primer: […] AA (SEQ ID NO: 22)).
Both the forward and reverse primers of the amplification reaction were designed and synthesized by Beijing Tsingke Biotechnology Co., Ltd. (U6 F Primer: […] (SEQ ID NO: 23), U6 R Primer: […] (SEQ ID NO: 24), HJT-sRNA-m7 F Primer: […] (SEQ ID NO: 25), HJT-sRNA-m7 R Primer: […] (SEQ ID NO: 26)).
3) The relative expression level was calculated by 2-ΔCt method.
3.1.3 After co-incubation with cells for 12-24 hours, the cells were washed twice with PBS. The cells were harvested with TRIzol lysis buffer (purchased from Sigma-Aldrich), and total RNA was extracted.

Another test concerns A549 cell. The test is described as follows: RT-qPCR detection of nucleic acid delivered by lipid into A549 cells. It is filed as cell-based, human. The conditions noted are these: RNA 100 nM; for delivery of double-stranded HJT-sRNA-m7 by single lipid (real-time PCR): 12 hours.
For a further test, the system named is A549 cells. The test is described as follows: Confocal fluorescence microscopy of nucleic acid delivered by lipid in cells. It is filed as cell-based, human. The following applies: 4 μl lipid, boiling method; 6 hours of co-incubation. As to the method: Experimental materials: A549 cells (purchased from the Cell Center of the Chinese Academy of Medical Sciences), PGY-sRNA-6-Cy3 (purchased from Ribobio Biotechnology Co., Ltd.), lipid No. 41, Zeiss LSM780 (purchased from Zeiss, Germany), Alexa Fluor® 488 phalloidin (purchased from Invitrogen, USA), DAPI (purchased from Invitrogen, USA), paraformaldehyde (purchased from sigma, USA).
Experimental methods: PGY-sRNA-6-FAM was dissolved in 100 μl water, mixed with 4 μl lipid, and prepared by the boiling method. Then the mixture was dropped into A549 cells, and after 6 hours of co-incubation, the samples were washed three times with PBS, fixed with 4% paraformaldehyde, washed three times with PBS, stained with Alexa Fluor® 488 phalloidin for 30 min, washed 3 times with PBS, and stained with DAPI for 5 min, washed with PBS, and then sealed.
Experimental method: PGY-sRNA-6-FAM was dissolved in 100 μl water, and mixed with 4 μl lipid, and prepared by boiling method. Then, the mixture was dropped into A549 cells, and after 6 hours of co-incubation, the samples were washed three times with PBS, fixed with 4% paraformaldehyde, washed three times with PBS, stained with Alexa Fluor® 488 phalloidin for 30 min, washed 3 times with PBS, and stained with DAPI for 5 min, PBS washed, and then sealed.

Where [1] appears, read: boiling (heating) method, 12 hours (No. 37: 3 hours).

In the case of `CCCCCCCCCCCCCCCCCCC[C@@H](O)[C@@H](N)CO` [No. 41, Sphinganine (d22:0)], the “delivery of double-stranded HJT-sRNA-m7 by single lipid (real-time PCR)” value in the test with MRC-5 cell (boiling (heating) method) is “delivered HJT-sRNA-m7 double-stranded RNA into MRC-5 cells”; in the test with MRC-5 cell (reverse evaporation method), “delivered HJT-sRNA-m7 double-stranded RNA into MRC-5 cells; also recorded: significantly higher than that of RNAiMAX”; in the test with A549 cell (boiling (heating) method, 2.5 μL single lipid), “delivered HJT-sRNA-m7 double-stranded RNA into A549 cells; also recorded: about twice that of RNAiMAX”; with A549 cell (reverse evaporation method) it was “delivered HJT-sRNA-m7 double-stranded RNA into A549 cells; also recorded: significantly higher than that of RNAiMAX”. For the same compound, the “delivery of single-stranded HJT-sRNA-m7 by single lipid (real-time PCR)” value is “delivered HJT-sRNA-m7 single-stranded RNA into A549 and MRC-5 cells” in the test with MRC-5 cell (setting [1]); “delivered HJT-sRNA-m7 single-stranded RNA into A549 and MRC-5 cells” with A549 cell (setting [1]). In addition, in the test on A549 cells, the “entry of PGY-sRNA-6-Cy3 observed under the confocal microscopy” value was “could effectively deliver double-stranded nucleic acid into A549 cells”.

The record behind these values is US20210108198A1, “APPLICATION OF COMPOUND OR TRADITIONAL CHINESE MEDICINE EXTRACT IN PREPARATION OF NUCLEIC ACID DELIVERY AGENT AND RELATED PRODUCTS THEREOF” (INSTITUTE OF BASIC MEDICAL SCIENCES CHINESE ACADEMY OF …, priority 2017, published 2021).
